US11998591B2, “Method of treating diabetes type 2 by administering ultrarapid acting insulin” (MannKind Corporation, priority 2008, dated 2024)
Like-named read-outs stand apart in the source and are kept apart here.

Assays:
patients = details: gastrointestinal side-effects being a primary issue; cited from earlier work
[1] = cited from earlier work
[2] = system: subjects with type 1 diabetes; experiment: 52-week clinical trial: basal insulin + prandial TI Inhalation Powder vs basal insulin + SC insulin aspart; format: in vivo, human
Excerpt: A Prospective, Multi-Center, Open-Label, Randomized, Controlled Clinical Trial Comparing the Efficacy and Safety in Subjects with Type 1 Diabetes Receiving SC Basal Insulin and Prandial Inhalation of Insulin-FDKP Versus SC Basal and Prandial Insulin Over a 52-Week Treatment Period and a 4-Week Follow-Up
This was a prospective, multi-country, multicenter, open label, randomized, controlled clinical trial comparing glycemic control in subjects with type 1 diabetes receiving basal insulin and prandial insulin-FDKP (TI) Inhalation Powder (TI Inhalation Powder group) with subjects receiving basal insulin and SC rapid-acting insulin aspart (comparator group). This study included a 52-week treatment phase and a 4-week follow-up phase. During the 4-week follow-up phase, pulmonary function and select clinical laboratory assessments were scheduled.
The study began with enrollment at Week −3. Subjects received a complete battery of safety and eligibility assessments, including HbA1c and fasting plasma glucose (FPG).
At Week −1, subjects were randomized to one of the following 2 treatments: • Basal insulin+prandial TI Inhalation Powder • Basal insulin+prandial SC rapid-acting insulin
At Week −1, subjects again completed the first three components of the Insulin Treatment Questionnaire (ITQ) for the purpose of assessing test-retest reliability only). After completing the questionnaire, subjects randomized to the TI Inhalation Powder group were trained on the MEDTONE® Inhaler using TECHNOSPHERE®/insulin (insulin-FDKP) inhalation powder; subjects in the comparator group were trained in the use of the NOVOLOG® pens; all subjects were trained in administration of LANTUS®. Additionally, all subjects were trained on a blood glucose monitoring (HBGM) meter provided at the beginning of the trial and diary and received diabetes education. Any training was repeated at Week 0, if needed.
At the beginning of the treatment phase, subjects had several titration/dose evaluation visits to adjust insulin therapy. Titration visits occurred once a week for the first 4 weeks. During Weeks 4 through 10, there were three telephone “visits” (at Week 6, Week 8, and Week 10) to titrate dose, if necessary. However, dose titration was allowed throughout the trial.
All subjects completed a 7-point blood glucose profile on any 3 days during the week immediately preceding each visit from Week 0 to Week 52. The 7 time points included samples from before breakfast and 2 hours after breakfast, before the mid-day meal and 2 hours after the mid-day meal, before the evening meal and 2 hours after the evening meal and at bedtime (7 time points a day, over 3 days). These blood glucose (BG) values were recorded in the HBGM diary that was collected at clinic visits. The diaries for Weeks 4 through 10 (during dose titration) which were discussed over the telephone were collected at the next office visits.
A meal challenge test was performed at Week 4 (during dose titration), Week 26, and Week 52. Meal challenge venous blood sampling times were: −30, 0, 30, 60, 90, 105, 120, 180, 240, 300, and 360 minutes. Blood glucose (BG) was also measured using HBGM glucose meters to aid the Investigator in treatment decisions and values were obtained at −30, 0, 60, and 120 minutes during the meal challenge.
Treatments for glycemic control used in the trial were the following: prandial insulin-FDKP (TI) inhalation powder, prandial insulin aspart, and basal insulin glargine. Subjects assigned to the TI Inhalation Powder group (TI Inhalation Powder in combination with basal insulin therapy) received sc basal insulin glargine (LANTUS®) once daily (at bedtime) and inhaled TI Inhalation Powder 3 to 4 times a day, immediately before main meals or a snack as based upon clinical need. Adjustment of the TI Inhalation Powder dose and frequency of use to greater than 3 times a day was at the discretion of the Investigator. […]

[3] = system: subjects with type 2 diabetes; format: in vivo, human
Protocol: The insulin-FDKP formulation is administered to the subjects by oral inhalation using a MEDTONE® dry powder inhaler (MannKind Corp.). Following the completion of the meal challenge, the data was analyzed as per the statistical analysis plan. […] The study was amended (A1) and included 12 subjects (10 were reenrolled from the first meal challenge), and only two treatments, which were 10 U lispro and 60 and 90 U TI. The doses were selected based on the relative bioavailability observed following the first meal challenge (OP), where under an assumption of linear kinetics, 10 U lispro and 60 U TI would result in similar exposure. The 90 U dose group was included to assess the effect of the highest dose group of TI studied in Phase 3 trials. Six of the 12 subjects received 60 U TI and the other 6 subjects received 90 U TI. All 12 subjects received 10 U lispro in a crossover fashion. Methods and results below are described in terms of the Original Protocol (OP), which includes the meal challenge in 18 subjects with three treatments (EXUBERA®, lispro and TI) and Amendment 1 (A1), which includes 12 subjects treated with only TI and lispro. […] The subjects were screened and evaluated before, during and after the experiments and their data analyzed as described below. Subjects were selected based on several key inclusion criteria, including, male and female, having ≥18 and ≤70 years of age with clinical diagnosis of type 2 diabetes mellitus for ≥12 months. The subjects selected for the study also had stable anti-diabetic regimen with insulin for the previous 3 months; HbA1c ≤8.5%; Body Mass Index (BMI) between ≤34 kg/m^2 and ≥25 kg/m^2; urine cotinine ≤100 ng/mL; […] Criteria for exclusion from the study also included unstable diabetes control and/or evidence of serious complications of diabetes (e.g., autonomic neuropathy); serum creatinine >1.8 mg/dL in female subjects and >2.0 mg/dL in male subjects. Other clinically important pulmonary disease was confirmed by documented history or pulmonary function testing. Under OP, the study was planned to be a randomized, open label, 3-way cross-over study. […] At this analysis all patients at least had completed the meal challenge visits and only those data have been used. The screening visit(s) (V1) occurred 1 to 21 days before the first treatment visit (V2) with 7 to 21 days elapsing between treatment-visits (V2, V3, and V4) for the meal challenge test. A minimum of 8 weeks elapsed between V4 and the next treatment visit, (V6). An additional safety visit (V5) was scheduled 1-3 days prior to the first of 3 glucose clamp procedures (V6). The glucose clamp procedure occurred at 3 visits, Visits V6, V7, and V8, with 7 to 21 days elapsing between the visits. […] Each treatment visit during the meal challenge had the subjects hospitalized in the clinical unit the night before initiation of treatment. […] Each subject followed the same randomization order for the glucose-clamp procedures as for the meal challenge tests. During the study, periodic blood draws for determination of pharmacokinetic and/or pharmacodynamic parameters, and safety were taken beginning at 12 hours prior to onset of the treatment regimens and meal challenge, and thereafter for a period of 8 hours. […] Meal Challenge Test: BOOST PLUS® (12 fl. oz.) consisting of 67.5 g carbohydrate, 21 g protein, 21 g fat, energy content 540 kcal was used for the meal challenge test. The BOOST PLUS® was enriched with U-^13C-glucose to determine the amount of absorbed glucose. Concurrent enriched continuous infusion of 6,6-^2H2 glucose was used to assess endogenous glucose production EGP. […] Under OP, the dose for insulin lispro was selected based on information obtained from the regulatory label. The dose selected for EXUBERA® was obtained by means of back calculation of the most commonly used dose information presented to the FDA Advisory Committee in the EXUBERA® Briefing Document. […]

[4] = system: subjects with type 2 diabetes; format: in vivo, human; remark: listed apart in the source
Protocol: Following the completion of the meal challenge, the data was analyzed as per the statistical analysis plan. […] The study was amended (A1) and included 12 subjects (10 were reenrolled from the first meal challenge), and only two treatments, which were 10 U lispro and 60 and 90 U TI. The doses were selected based on the relative bioavailability observed following the first meal challenge (OP), where under an assumption of linear kinetics, 10 U lispro and 60 U TI would result in similar exposure. The 90 U dose group was included to assess the effect of the highest dose group of TI studied in Phase 3 trials. Six of the 12 subjects received 60 U TI and the other 6 subjects received 90 U TI. All 12 subjects received 10 U lispro in a crossover fashion. Methods and results below are described in terms of the Original Protocol (OP), which includes the meal challenge in 18 subjects with three treatments (EXUBERA®, lispro and TI) and Amendment 1 (A1), which includes 12 subjects treated with only TI and lispro. […] The subjects were screened and evaluated before, during and after the experiments and their data analyzed as described below. Subjects were selected based on several key inclusion criteria, including, male and female, having ≥18 and ≤70 years of age with clinical diagnosis of type 2 diabetes mellitus for ≥12 months. The subjects selected for the study also had stable anti-diabetic regimen with insulin for the previous 3 months; HbA1c ≤8.5%; Body Mass Index (BMI) between ≤34 kg/m^2 and ≥25 kg/m^2; urine cotinine ≤100 ng/mL; […] Criteria for exclusion from the study also included unstable diabetes control and/or evidence of serious complications of diabetes (e.g., autonomic neuropathy); serum creatinine >1.8 mg/dL in female subjects and >2.0 mg/dL in male subjects. Other clinically important pulmonary disease was confirmed by documented history or pulmonary function testing. Under A1, the study was planned to be a randomized, open label, 2-way cross-over study. […] Blood glucose concentrations were measured at regular intervals from arterialized venous blood samples. […]

[5] = subjects with type 1 diabetes, prescribing information
[6] = 52 weeks, with basal insulin glargine
[7] = OP: 45 U insulin-FDKP, 12 U SC lispro, 4 mg EXUBERA, FIG. 6

CN(C)C(=N)N=C(N)N [metformin]
Patients who cannot tolerate the drug, at least at dosages adequate for acceptable glycemic control (patients): Approximately 30%

Regular human insulin: regular human insulin preparations for subcutaneous injection, considered short acting
Duration of significant elevation or activity (as long as) ([1]; subcutaneous injection): 10 to 12 h | Time to reach maximal activity ([1]; subcutaneous injection): 2 to 4 h | Time to reach maximal blood insulin concentration ([1]; subcutaneous injection): 1 to 2 h

insulin aspart: SC rapid-acting insulin analog (NOVOLOG®), comparator in Example 2
Median Tmax [1, 5]: 0.667 to 0.833 h | Mean decrease in fasting plasma glucose (FPG) from baseline ([2]; 52-week treatment period, with basal insulin glargine): 23.4 (SD 103.1) mg/dL | Mean fasting plasma glucose (FPG) at the end of the treatment period [2, 6]: 161.3 (SD 68.2) mg/dL | Percentage of subjects whose HbA1c level decreased to ≤6.5% [2, 6]: 7.31% | Percentage of subjects whose HbA1c level decreased to ≤7.0% [2, 6]: 15.98% | Percentage of subjects whose HbA1c level decreased to ≤8.0% [2, 6]: 56.16% | HbA1c ([2]; Week 14, with basal insulin glargine): 8.07 (SD 1.09) % | Average body weight gain ([2]; over the 52-week treatment period): 1.4 kg

insulin glulisine: rapid acting insulin analog (APIDRA®)
Range of Tmax ([1]; both type 1 and type 2 populations, prescribing information): 0.667 to 2 h | Median Tmax [1, 5]: 1 h | Median Tmax ([1]; subjects with type 2 diabetes, prescribing information): 1.67 h

insulin lispro: rapid acting insulin analog, subcutaneously administered (HUMALOG®, Eli Lilly & Co.)
Time of peak inhibition of endogenous glucose production after treatment ([3]; OP: 45 U insulin-FDKP, 12 U SC lispro, 4 mg EXUBERA, FIG. 5): about 80 minutes | Time after dosing at which glucose disappearance rate peaked [3, 7]: about 120 minutes | Time post dosing at which glucose disappearance rate was substantial / departed from baseline [3, 7]: about 30 minutes | Time post-treatment at which (further) glucose infusion was needed to remain above 90 mg/dL ([3]; OP: 45 U insulin-FDKP, 12 U SC lispro, 4 mg EXUBERA, after the initial phase): ~3 h | Median tmax of insulin concentration ([3]; human, in vivo, sc, 4 mg): 1.25 h | Total insulin exposure, greater than following either 45 U insulin-FDKP (TI) or 4 mg EXUBERA ([3]; in vivo): approximately 40% | Tmax ([1]; prescribing information): 0.5 to 1.5 h | Time of peak inhibition of endogenous glucose production following dosing ([4]; 10 U lispro SC, FIG. 10): about 100 minutes | Time after dosing at which glucose disappearance rate peaked ([4]; 10 U lispro SC, FIG. 11): about 100 minutes | Median tmax of insulin concentration ([4]; human, in vivo, sc): 1 h
